{"source": "paper PMC4823954", "about": "“From fighting depression to conquering tumors: a novel tricyclic thiazepine compound as a tubulin polymerization inhibitor” (Cell Death & Disease, 2016)", "assay_in_all_cases": "KINOMEscan", "format_in_all_cases": "binding", "conditions_in_all_cases": "read-out: % Ctrl", "key": {"[1]": {"target": "T1, NEK1 (Homo sapiens, UniProt Q96PY6)", "T1 construct": "purchased DiscoveRx KINOMEscan", "in_short": "(§1)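 Competition binding panel of 442 non-mutant kinases: test compound at 5 and 10 μM competed with an active-site-directed ligand for 1 h with shaking. Bound kinase was eluted with 0.5 μM ligand and quantified by qPCR; %Ctrl = (compound − positive control)/(DMSO − positive control) × 100, lower meaning tighter binding.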"}, "[2]": {"target": "T2, SYK (Homo sapiens, UniProt P43405)", "T2 construct": "purchased DiscoveRx KINOMEscan", "in_short": "as §1"}, "[3]": {"target": "T3, ACVRL1 (Homo sapiens, UniProt P37023)", "T3 construct": "purchased DiscoveRx KINOMEscan", "T3 sequence (P37023 22-503)": "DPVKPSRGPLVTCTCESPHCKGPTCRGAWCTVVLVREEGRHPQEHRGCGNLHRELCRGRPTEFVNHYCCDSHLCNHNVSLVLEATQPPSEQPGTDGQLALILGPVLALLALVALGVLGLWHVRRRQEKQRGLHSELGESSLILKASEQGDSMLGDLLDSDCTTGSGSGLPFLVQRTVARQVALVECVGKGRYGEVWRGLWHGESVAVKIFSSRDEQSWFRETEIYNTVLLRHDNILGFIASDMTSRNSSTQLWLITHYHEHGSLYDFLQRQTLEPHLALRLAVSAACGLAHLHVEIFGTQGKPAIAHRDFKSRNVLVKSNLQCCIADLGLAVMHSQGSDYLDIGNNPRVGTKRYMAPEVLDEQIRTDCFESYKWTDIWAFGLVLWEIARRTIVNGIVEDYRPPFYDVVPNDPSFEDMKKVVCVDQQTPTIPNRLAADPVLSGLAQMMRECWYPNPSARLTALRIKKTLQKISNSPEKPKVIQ", "in_short": "as §1"}, "[4]": {"target": "T4, CDKL1 (Homo sapiens, UniProt Q00532)", "T4 construct": "purchased DiscoveRx KINOMEscan", "in_short": "as §1"}, "[5]": {"target": "T5, ADCK4 (Homo sapiens, UniProt Q96D53)", "T5 construct": "purchased DiscoveRx KINOMEscan", "in_short": "as §1"}, "[6]": {"target": "T6, MAP3K1 (Homo sapiens, UniProt Q13233)", "T6 construct": "purchased DiscoveRx KINOMEscan", "in_short": "as §1"}, "[7]": {"target": "T7, SRC (Homo sapiens, UniProt P12931)", "T7 construct": "purchased DiscoveRx KINOMEscan", "in_short": "as §1"}, "[8]": {"target": "T8, PIP5K1C (Homo sapiens, UniProt O60331)", "T8 construct": "purchased DiscoveRx KINOMEscan", "in_short": "as §1"}, "[9]": {"target": "T9, PRP4 (Homo sapiens, UniProt Q13523)", "T9 construct": "purchased DiscoveRx KINOMEscan", "in_short": "as §1"}, "[10]": {"target": "T10, MLCK (Homo sapiens, UniProt Q32MK0)", "T10 construct": "purchased DiscoveRx KINOMEscan", "in_short": "as §1"}, "[11]": {"target": "T11, NEK11 (Homo sapiens, UniProt Q8NG66)", "T11 construct": "purchased DiscoveRx KINOMEscan", "in_short": "as §1"}, "[12]": {"target": "T12, PRKD2 (Homo sapiens, UniProt Q9BZL6)", "T12 construct": "purchased DiscoveRx KINOMEscan", "in_short": "as §1"}, "[13]": {"target": "T13, FLT3(N841I) (Homo sapiens, UniProt P36888, N841I)", "T13 construct": "purchased DiscoveRx KINOMEscan"}, "[14]": {"target": "T14, PFCDPK1(P.falciparum) (Plasmodium falciparum, UniProt P62344)", "T14 construct": "purchased DiscoveRx KINOMEscan", "in_short": "as §1"}, "[15]": {"target": "T15, ROCK1 (Homo sapiens, UniProt Q13464)", "T15 construct": "purchased DiscoveRx KINOMEscan", "in_short": "as §1"}, "[16]": {"target": "T16, ERBB3 (Homo sapiens, UniProt P21860)", "T16 construct": "purchased DiscoveRx KINOMEscan", "in_short": "as §1"}, "[17]": {"target": "T17, LYN (Homo sapiens, UniProt P07948)", "T17 construct": "purchased DiscoveRx KINOMEscan", "in_short": "as §1"}, "[18]": {"target": "T18, PAK1 (Homo sapiens, UniProt Q13153)", "T18 construct": "purchased DiscoveRx KINOMEscan", "in_short": "as §1"}, "[19]": {"target": "T19, TGFBR1 (Homo sapiens, UniProt P36897)", "T19 construct": "purchased DiscoveRx KINOMEscan", "T19 sequence (P36897 34-503)": "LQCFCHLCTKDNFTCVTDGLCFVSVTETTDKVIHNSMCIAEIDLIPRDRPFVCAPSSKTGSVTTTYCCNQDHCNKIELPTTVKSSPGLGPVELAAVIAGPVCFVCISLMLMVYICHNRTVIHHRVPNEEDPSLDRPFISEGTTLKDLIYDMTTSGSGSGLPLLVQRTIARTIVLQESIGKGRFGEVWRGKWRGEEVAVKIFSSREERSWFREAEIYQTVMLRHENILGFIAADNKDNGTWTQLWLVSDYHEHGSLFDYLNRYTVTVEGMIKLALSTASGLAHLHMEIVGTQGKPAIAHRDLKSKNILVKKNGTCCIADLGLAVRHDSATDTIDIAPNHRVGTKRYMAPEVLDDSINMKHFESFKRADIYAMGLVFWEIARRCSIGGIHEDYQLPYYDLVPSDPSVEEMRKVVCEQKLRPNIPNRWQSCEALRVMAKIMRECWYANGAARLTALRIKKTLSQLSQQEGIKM", "in_short": "as §1"}, "[20]": {"target": "T20, PIK3C2B (Homo sapiens, UniProt O00750)", "T20 construct": "purchased DiscoveRx KINOMEscan", "T20 sequence (O00750 whole entry)": "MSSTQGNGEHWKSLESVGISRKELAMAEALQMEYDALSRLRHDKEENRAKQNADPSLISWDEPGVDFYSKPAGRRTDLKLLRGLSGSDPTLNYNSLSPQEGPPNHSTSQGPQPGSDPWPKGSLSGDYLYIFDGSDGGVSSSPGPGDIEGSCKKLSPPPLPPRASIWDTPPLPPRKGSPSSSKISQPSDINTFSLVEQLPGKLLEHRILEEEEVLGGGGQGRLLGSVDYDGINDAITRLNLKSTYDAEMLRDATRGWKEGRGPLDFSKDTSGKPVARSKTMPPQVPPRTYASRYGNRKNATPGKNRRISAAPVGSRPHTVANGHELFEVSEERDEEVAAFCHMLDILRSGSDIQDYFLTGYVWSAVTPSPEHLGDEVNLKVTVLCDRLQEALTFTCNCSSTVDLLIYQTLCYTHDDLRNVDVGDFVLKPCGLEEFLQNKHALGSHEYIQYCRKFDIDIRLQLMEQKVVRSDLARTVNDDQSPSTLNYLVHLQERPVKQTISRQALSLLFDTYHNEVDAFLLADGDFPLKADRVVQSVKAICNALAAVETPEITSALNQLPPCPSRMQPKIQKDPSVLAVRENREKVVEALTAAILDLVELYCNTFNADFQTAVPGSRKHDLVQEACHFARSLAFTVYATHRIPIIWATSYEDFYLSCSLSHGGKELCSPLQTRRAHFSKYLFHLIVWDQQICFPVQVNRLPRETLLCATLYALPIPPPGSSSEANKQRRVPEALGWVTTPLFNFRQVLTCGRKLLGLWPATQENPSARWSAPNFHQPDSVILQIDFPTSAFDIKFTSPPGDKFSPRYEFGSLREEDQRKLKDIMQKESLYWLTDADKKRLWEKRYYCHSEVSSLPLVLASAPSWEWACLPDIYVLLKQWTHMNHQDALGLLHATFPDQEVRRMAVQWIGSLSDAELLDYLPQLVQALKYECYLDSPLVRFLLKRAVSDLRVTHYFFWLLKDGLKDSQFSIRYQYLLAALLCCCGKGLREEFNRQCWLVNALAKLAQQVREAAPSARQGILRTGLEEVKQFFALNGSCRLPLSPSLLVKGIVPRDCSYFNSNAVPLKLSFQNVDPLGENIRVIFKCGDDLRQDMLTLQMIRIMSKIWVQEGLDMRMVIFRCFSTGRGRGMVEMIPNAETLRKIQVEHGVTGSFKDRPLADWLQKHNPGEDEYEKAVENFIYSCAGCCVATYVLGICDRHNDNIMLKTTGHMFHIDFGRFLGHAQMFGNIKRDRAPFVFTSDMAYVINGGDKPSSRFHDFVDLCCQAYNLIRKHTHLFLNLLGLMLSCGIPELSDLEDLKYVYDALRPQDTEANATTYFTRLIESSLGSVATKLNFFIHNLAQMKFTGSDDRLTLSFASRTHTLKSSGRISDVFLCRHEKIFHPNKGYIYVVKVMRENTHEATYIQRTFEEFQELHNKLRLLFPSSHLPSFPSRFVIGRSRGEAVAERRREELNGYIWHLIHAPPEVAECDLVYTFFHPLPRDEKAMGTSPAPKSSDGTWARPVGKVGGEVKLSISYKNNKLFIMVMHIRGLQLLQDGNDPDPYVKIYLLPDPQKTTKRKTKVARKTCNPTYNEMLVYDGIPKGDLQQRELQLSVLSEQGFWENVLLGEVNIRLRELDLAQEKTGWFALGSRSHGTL", "in_short": "as §1"}, "[21]": {"target": "T21, ASK2 (Homo sapiens, UniProt O95382)", "T21 construct": "purchased DiscoveRx KINOMEscan", "in_short": "as §1"}, "[22]": {"target": "T22, TESK1 (Homo sapiens, UniProt Q15569)", "T22 construct": "purchased DiscoveRx KINOMEscan", "T22 sequence (Q15569 whole entry)": "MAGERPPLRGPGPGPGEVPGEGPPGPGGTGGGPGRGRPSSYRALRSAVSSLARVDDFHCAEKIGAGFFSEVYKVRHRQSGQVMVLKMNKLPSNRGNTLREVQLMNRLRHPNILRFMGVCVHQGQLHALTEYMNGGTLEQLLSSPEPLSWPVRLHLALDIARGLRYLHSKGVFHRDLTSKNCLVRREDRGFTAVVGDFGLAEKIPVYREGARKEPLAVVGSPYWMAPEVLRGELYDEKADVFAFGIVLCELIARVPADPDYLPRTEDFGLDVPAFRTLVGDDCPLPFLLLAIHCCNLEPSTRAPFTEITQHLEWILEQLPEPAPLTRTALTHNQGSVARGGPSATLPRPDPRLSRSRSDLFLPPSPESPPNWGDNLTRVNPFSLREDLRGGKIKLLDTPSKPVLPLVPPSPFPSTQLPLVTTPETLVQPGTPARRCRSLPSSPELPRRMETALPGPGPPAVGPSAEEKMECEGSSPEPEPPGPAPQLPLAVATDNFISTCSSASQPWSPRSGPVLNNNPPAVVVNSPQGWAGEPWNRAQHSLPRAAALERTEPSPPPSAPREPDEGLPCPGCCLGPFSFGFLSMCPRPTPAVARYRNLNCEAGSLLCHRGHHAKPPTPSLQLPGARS", "in_short": "as §1"}, "[23]": {"target": "T23, ULK3 (Homo sapiens, UniProt Q6PHR2)", "T23 construct": "purchased DiscoveRx KINOMEscan", "T23 sequence (Q6PHR2 whole entry)": "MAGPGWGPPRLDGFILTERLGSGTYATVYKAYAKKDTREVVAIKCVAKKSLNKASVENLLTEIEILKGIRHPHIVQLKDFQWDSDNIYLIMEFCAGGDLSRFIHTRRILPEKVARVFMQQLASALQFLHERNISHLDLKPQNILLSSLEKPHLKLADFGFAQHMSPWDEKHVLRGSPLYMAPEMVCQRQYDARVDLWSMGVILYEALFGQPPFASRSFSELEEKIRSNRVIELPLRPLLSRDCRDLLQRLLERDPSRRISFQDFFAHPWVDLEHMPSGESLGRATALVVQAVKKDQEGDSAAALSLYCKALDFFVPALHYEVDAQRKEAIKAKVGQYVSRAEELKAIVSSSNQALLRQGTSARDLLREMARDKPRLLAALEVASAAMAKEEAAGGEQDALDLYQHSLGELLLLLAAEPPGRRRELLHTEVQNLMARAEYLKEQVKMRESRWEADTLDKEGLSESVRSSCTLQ", "in_short": "as §1"}, "[24]": {"target": "T24, RPS6KA4(Kin.Dom.1-N-terminal) (Homo sapiens, UniProt O75676)", "T24 construct": "RPS6KA4(Kin.Dom.1-N-terminal); purchased DiscoveRx KINOMEscan", "in_short": "as §1"}, "[25]": {"target": "T25, TBK1 (Homo sapiens, UniProt Q9UHD2)", "T25 construct": "purchased DiscoveRx KINOMEscan", "T25 sequence (Q9UHD2 whole entry)": "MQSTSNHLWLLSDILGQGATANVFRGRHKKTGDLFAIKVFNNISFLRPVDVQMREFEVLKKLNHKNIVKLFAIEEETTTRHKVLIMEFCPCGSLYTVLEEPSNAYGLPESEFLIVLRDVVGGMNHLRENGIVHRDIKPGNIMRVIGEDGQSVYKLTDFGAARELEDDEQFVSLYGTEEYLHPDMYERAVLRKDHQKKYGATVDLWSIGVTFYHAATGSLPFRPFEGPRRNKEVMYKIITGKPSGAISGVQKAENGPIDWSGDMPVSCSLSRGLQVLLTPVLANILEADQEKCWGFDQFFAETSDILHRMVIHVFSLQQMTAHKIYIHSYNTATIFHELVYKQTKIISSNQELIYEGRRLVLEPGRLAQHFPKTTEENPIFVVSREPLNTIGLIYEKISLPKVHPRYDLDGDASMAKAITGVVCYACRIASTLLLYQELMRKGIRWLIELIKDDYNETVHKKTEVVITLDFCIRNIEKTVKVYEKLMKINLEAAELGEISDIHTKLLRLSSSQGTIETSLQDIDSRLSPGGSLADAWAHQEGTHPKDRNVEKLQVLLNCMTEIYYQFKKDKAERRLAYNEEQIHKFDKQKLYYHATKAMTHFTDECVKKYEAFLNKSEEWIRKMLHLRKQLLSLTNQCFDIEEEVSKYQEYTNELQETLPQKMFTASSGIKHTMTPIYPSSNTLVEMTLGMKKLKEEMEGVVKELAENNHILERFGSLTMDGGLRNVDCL", "in_short": "as §1"}, "[26]": {"target": "T26, FLT4 (Homo sapiens, UniProt P35916)", "T26 construct": "purchased DiscoveRx KINOMEscan", "in_short": "as §1"}, "[27]": {"target": "T27, RAF1 (Homo sapiens, UniProt P04049)", "T27 construct": "purchased DiscoveRx KINOMEscan", "in_short": "as §1"}, "[28]": {"target": "T28, MAP3K15 (Homo sapiens, UniProt Q6ZN16)", "T28 construct": "purchased DiscoveRx KINOMEscan", "in_short": "as §1"}, "[29]": {"target": "T29, TYK2(JH2domain-pseudokinase) (Homo sapiens, UniProt P29597)", "T29 construct": "TYK2(JH2domain-pseudokinase); purchased DiscoveRx KINOMEscan", "T29 sequence (P29597 556-888 limits assumed)": "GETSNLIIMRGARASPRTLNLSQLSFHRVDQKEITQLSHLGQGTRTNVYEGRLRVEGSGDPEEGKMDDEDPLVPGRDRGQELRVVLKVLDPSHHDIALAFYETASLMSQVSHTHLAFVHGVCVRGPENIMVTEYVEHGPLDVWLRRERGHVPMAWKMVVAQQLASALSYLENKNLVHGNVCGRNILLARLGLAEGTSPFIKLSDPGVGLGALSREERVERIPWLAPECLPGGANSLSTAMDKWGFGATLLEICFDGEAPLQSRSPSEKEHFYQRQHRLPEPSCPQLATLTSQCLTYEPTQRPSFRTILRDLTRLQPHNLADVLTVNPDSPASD", "in_short": "as §1"}}, "data": [{"smiles": "Cc1ccc(C2=Nc3cccnc3S(=O)(=O)c3ccccc32)cc1", "note": "[TBPT, 6-(p-tolyl)benzo[f] pyrido[2,3-b][1,4] thiazepine 11,11-dioxide]", "values": [{"measurement": "remaining binding at 5 µM", "setting": "[1]; 5 μM", "result": 90, "unit": "%"}, {"measurement": "remaining binding at 10 µM", "setting": "[1]; 10 μM", "result": 100, "unit": "%"}, {"measurement": "remaining binding at 5 µM", "setting": "[2]; 5 μM", "result": 100, "unit": "%"}, {"measurement": "remaining binding at 10 µM", "setting": "[2]; 10 μM", "result": 100, "unit": "%"}, {"measurement": "remaining binding at 5 µM", "setting": "[3]; 5 μM", "result": 100, "unit": "%"}, {"measurement": "remaining binding at 10 µM", "setting": "[3]; 10 μM", "result": 71, "unit": "%"}, {"measurement": "remaining binding at 5 µM", "setting": "[4]; 5 μM", "result": 94, "unit": "%"}, {"measurement": "remaining binding at 10 µM", "setting": "[4]; 10 μM", "result": 88, "unit": "%"}, {"measurement": "remaining binding at 5 µM", "setting": "[5]; 5 μM", "result": 83, "unit": "%"}, {"measurement": "remaining binding at 10 µM", "setting": "[5]; 10 μM", "result": 94, "unit": "%"}, {"measurement": "remaining binding at 5 µM", "setting": "[6]; 5 μM", "result": 100, "unit": "%"}, {"measurement": "remaining binding at 10 µM", "setting": "[6]; 10 μM", "result": 100, "unit": "%"}, {"measurement": "remaining binding at 5 µM", "setting": "[7]; 5 μM", "result": 87, "unit": "%"}, {"measurement": "remaining binding at 10 µM", "setting": "[7]; 10 μM", "result": 100, "unit": "%"}, {"measurement": "remaining binding at 5 µM", "setting": "[8]; 5 μM", "result": 100, "unit": "%"}, {"measurement": "remaining binding at 10 µM", "setting": "[8]; 10 μM", "result": 94, "unit": "%"}, {"measurement": "remaining binding at 5 µM", "setting": "[9]; 5 μM", "result": 99, "unit": "%"}, {"measurement": "remaining binding at 10 µM", "setting": "[9]; 10 μM", "result": 100, "unit": "%"}, {"measurement": "remaining binding at 5 µM", "setting": "[10]; 5 μM", "result": 92, "unit": "%"}, {"measurement": "remaining binding at 10 µM", "setting": "[10]; 10 μM", "result": 95, "unit": "%"}, {"measurement": "remaining binding at 5 µM", "setting": "[11]; 5 μM", "result": 43, "unit": "%"}, {"measurement": "remaining binding at 10 µM", "setting": "[11]; 10 μM", "result": 100, "unit": "%"}, {"measurement": "remaining binding at 5 µM", "setting": "[12]; 5 μM", "result": 100, "unit": "%"}, {"measurement": "remaining binding at 10 µM", "setting": "[12]; 10 μM", "result": 100, "unit": "%"}, {"measurement": "remaining binding at 5 µM", "setting": "[13]; 5 μM", "result": 85, "unit": "%"}, {"measurement": "remaining binding at 10 µM", "setting": "[13]; 10 μM", "result": 100, "unit": "%"}, {"measurement": "remaining binding at 5 µM", "setting": "[14]; 5 μM", "result": 100, "unit": "%"}, {"measurement": "remaining binding at 10 µM", "setting": "[14]; 10 μM", "result": 100, "unit": "%"}, {"measurement": "remaining binding at 5 µM", "setting": "[15]; 5 μM", "result": 84, "unit": "%"}, {"measurement": "remaining binding at 10 µM", "setting": "[15]; 10 μM", "result": 100, "unit": "%"}, {"measurement": "remaining binding at 5 µM", "setting": "[16]; 5 μM", "result": 45, "unit": "%"}, {"measurement": "remaining binding at 10 µM", "setting": "[16]; 10 μM", "result": 100, "unit": "%"}, {"measurement": "remaining binding at 5 µM", "setting": "[17]; 5 μM", "result": 87, "unit": "%"}, {"measurement": "remaining binding at 10 µM", "setting": "[17]; 10 μM", "result": 100, "unit": "%"}, {"measurement": "remaining binding at 5 µM", "setting": "[18]; 5 μM", "result": 81, "unit": "%"}, {"measurement": "remaining binding at 10 µM", "setting": "[18]; 10 μM", "result": 92, "unit": "%"}, {"measurement": "remaining binding at 5 µM", "setting": "[19]; 5 μM", "result": 100, "unit": "%"}, {"measurement": "remaining binding at 10 µM", "setting": "[19]; 10 μM", "result": 85, "unit": "%"}, {"measurement": "remaining binding at 5 µM", "setting": "[20]; 5 μM", "result": 100, "unit": "%"}, {"measurement": "remaining binding at 10 µM", "setting": "[20]; 10 μM", "result": 100, "unit": "%"}, {"measurement": "remaining binding at 5 µM", "setting": "[21]; 5 μM", "result": 82, "unit": "%"}, {"measurement": "remaining binding at 10 µM", "setting": "[21]; 10 μM", "result": 100, "unit": "%"}, {"measurement": "remaining binding at 5 µM", "setting": "[22]; 5 μM", "result": 87, "unit": "%"}, {"measurement": "remaining binding at 10 µM", "setting": "[22]; 10 μM", "result": 95, "unit": "%"}, {"measurement": "remaining binding at 5 µM", "setting": "[23]; 5 μM", "result": 100, "unit": "%"}, {"measurement": "remaining binding at 10 µM", "setting": "[23]; 10 μM", "result": 100, "unit": "%"}, {"measurement": "remaining binding at 5 µM", "setting": "[24]; 5 μM", "result": 75, "unit": "%"}, {"measurement": "remaining binding at 10 µM", "setting": "[24]; 10 μM", "result": 100, "unit": "%"}, {"measurement": "remaining binding at 5 µM", "setting": "[25]; 5 μM", "result": 100, "unit": "%"}, {"measurement": "remaining binding at 10 µM", "setting": "[25]; 10 μM", "result": 100, "unit": "%"}, {"measurement": "remaining binding at 5 µM", "setting": "[26]; 5 μM", "result": 100, "unit": "%"}, {"measurement": "remaining binding at 10 µM", "setting": "[26]; 10 μM", "result": 100, "unit": "%"}, {"measurement": "remaining binding at 5 µM", "setting": "[27]; 5 μM", "result": 100, "unit": "%"}, {"measurement": "remaining binding at 10 µM", "setting": "[27]; 10 μM", "result": 91, "unit": "%"}, {"measurement": "remaining binding at 5 µM", "setting": "[28]; 5 μM", "result": 100, "unit": "%"}, {"measurement": "remaining binding at 10 µM", "setting": "[28]; 10 μM", "result": 100, "unit": "%"}, {"measurement": "remaining binding at 5 µM", "setting": "[29]; 5 μM", "result": 82, "unit": "%"}, {"measurement": "remaining binding at 10 µM", "setting": "[29]; 10 μM", "result": 100, "unit": "%"}]}]}
